Measured values published in US11684610B2, “Pharmaceutical composition including 1,2-naphthoquinone derivative compound for prevention or treatment of solid cancers or blood cancers” (YUNGJIN PHARM. CO., LTD., priority 2018, dated 2023).

Legend:
[1] = system: Hela (cervix adenocarcinoma); assay: Cell viability in solid cancer cells, WST assay, Hela; type: cell-based, human; settings: 1 to 30 μM, 6 hours
Source text: (§1) To confirm the possibility of use as a therapeutic agent for solid cancer, A549 cell line obtained from a […] with lung carcinoma, Hela cell line obtained from a person with cervix adenocarcinoma, HepG2 cell line obtained from a child with hepatocellular carcinoma, MCF7 cell line obtained from a person with breast adenocarcinoma, and Beas-2B cell line obtained from a normal lung for comparison with solid cancer cell line were used.
(§2) The A549 (lung carcinoma), Hela (cervix adenocarcinoma), HepG2 (hepatocellular carcinoma), MCF7 (breast carcinoma), and Beas-2B (normal lung) cell lines were used in DMEM medium containing 10% FBS, subcultured once every 2 days in an incubator under conditions of 37° C. and 5% CO2 and used in the experiment.
(§3) A549 (lung carcinoma), Hela (cervix adenocarcinoma), HepG2 (hepatocellular carcinoma), MCF7 (breast carcinoma), and Beas-2B (normal lung) cells cultured in Example 6-1 were inoculated into a 96-well plated at 1×10^4 cells/well, and then for the stabilization of cells, the cells were cultured in an incubator at 37° C. and 5% CO2 for 16 hours or more. Subsequently, among the compounds synthesized in Example 1, the compounds 1, 10 and 72 were treated at a concentration of 1 to 30 μM, and then cultured for 6 hours. At this time, DMSO and β-lapachone were used as the control group. After 4 hours of incubation, 10 μl of WST solution was added to each cell, the reaction was carried out for 2 hours, and the absorbance was measured at 450 nm with a multi-scan machine. The cell viabilities of A549 (lung carcinoma), Hela (cervix adenocarcinoma), HepG2 (hepatocellular carcinoma) and MCF7 (breast carcinoma) cells are shown in Table 4 and FIG. 6 below.

[2] = system: A549 (lung carcinoma); assay: Cell viability in solid cancer cells, WST assay, A549; type: cell-based, human; settings: A549, 1 to 30 μM, 6 hours
Source text: as §1, §2, §3

[3] = system: MCF7 (breast carcinoma); assay: Cell viability in solid cancer cells, WST assay, MCF7; type: cell-based, human; settings: MCF7, 1 to 30 μM, 6 hours
Source text: as §1, §2, §3

[4] = system: HepG2 (hepatocellular carcinoma); assay: Cell viability in solid cancer cells, WST assay, HepG2; type: cell-based, human; settings: HepG2, 1 to 30 μM, 6 hours
Source text: as §1, §2, §3

[5] = system: HL60 cells; assay: Cell viability of HL60 cells, WST-1; type: cell-based, human; settings: 24 hours, WST-1, FIG. 1A
Source text: (§4) The constructed cell lines were also diverse. Thus, in order to confirm the applicability to a wide range of therapeutic agents that are not therapeutic agents for specific types of acute leukemia, in the present invention, KG1α cells constructed by selecting only cells having a stem cell phenotype from KG1 cells, which are cell lines obtained from a person with acute myelogenous leukemia, were used. HL60 cells, which are cell lines obtained from a person with acute promyelocytic leukemia, and U937 cells, which are cell lines obtained from a person with histiocytic lymphoma, were used.
(§5) KG1α and HL60 cells were cultured in IMDM medium containing 20% FBS (fetal bovine serum), and U937 cells were cultured in RPMI 1640 medium containing 10% FBS. All cells were cultured in an incubator under conditions of 37° C. and 5% CO2, and subcultured once every 2 or 3 days and used in the experiment.
(§6) The HL60 cells or U937 cells cultured in Example 2-1 were inoculated into a 96-well plate at 1×10^5 cells/well, and then for the stabilization of cells, the cells were cultured in an incubator at 37° C. and 5% CO2 for 16 hours or more. Subsequently, the compound 1 synthesized in Example 1 was treated at concentrations of 0.1, 0.5 and 1 μM, respectively, and reacted for 24 hours. […] The absorbance was then measured at 450 nm with a multi-scan machine.

[6] = system: HL60 cells; assay: Apoptosis or cell necrosis in HL60 cells, FACS (Annexin-V/PI) and western blot; type: cell-based, human; settings: 0-2 μM, 24 hours, FIG. 3
Experimental: (§7) Cell death was typically known as apoptosis or cell necrosis. Thus, in order to confirm whether the death of acute leukemia cells induced by the compound 1 of the present invention was due to apoptosis or cell necrosis, fluorescence activated cell sorting (FACS) and western blot were performed.
(§8) First, in order to conduct FACS, KG1α cells or HL60 cells cultured in […] were inoculated in a 6-well plate at 1×10^7 cells/well, and for the stabilization of cells, the cells were cultured in an incubator at 37° C. and 5% CO2 for 16 hours or more. Subsequently, the compound 1 was treated at concentrations of 0, 0.1, 0.5, 1 and 2 μM, respectively, and cultured for 24 hours, and then the cells were recovered and washed with cold PBS. Only 1×10^6 cells were taken and resuspended with PBS, and then stained with Annexin-V (green fluorescence), which increases during apoptosis, and Pi (propidium iodide, red fluorescence), which […]. The degree of the two indicators were quantified by FACS, the FACS results for KG1α cells are shown in FIG. 2A, and the FACS results for HL60 cells are shown in FIG. 3A.
(§9) Next, in order to perform western blot, KG1α cells or HL60 cells cultured in Example 2-1 were inoculated into a 6-well plate at 1×10^7 cells/well. In order to stabilize the cells, the cells were cultured for 16 hours or more in an incubator at 37° C. and 5% CO2. […]

[7] = system: KG1α cells; assay: Cell viability in KG1α cells, WST assay; type: cell-based, human; settings: 0.1 to 3 μM
Source text: as §4, §5
KG1α cells are cells resistant to idarubicin and cytarabine, which are the therapeutic agents for acute myeloid leukemia, and are refractory AML cells. KG1α cells cultured in Example 2-1 were cultured into a 96-well plate at 1×10^5 cells/well, and then cultured in an incubator at 37° C. and 5% CO2 for 16 hours or more for the stabilization of cells. […] At this time, DMSO was used as a control group. After 24 hours, each cell was treated with 10 μl of WST solution, reacted for 2 hours, and then absorbance was measured at 450 nm with a multi-scan machine, and the cell viability of KG1α cells was confirmed as shown in Table 4 below.

[8] = system: BCR-ABL fusion gene; assay: Expression level of BCR-ABL fusion gene in K562 cells, western blot; type: cell-based, human; settings: 0.5-2.5 μM, 6 hours, FIG. 5
Experimental: The BCR-ABL fusion gene, existing only in chronic myelogenous leukemia, generated and transmitted continuous cell growth signals to induce the growth of cancer cells. Thus, after chronic myeloid leukemia cells were treated with the compound of the present invention, western blot was used to confirm whether the expression level of the BCR-ABL fusion gene was reduced.
First, the K562 cells cultured in Example 4-1 were inoculated into a 60 mm plate at 5×10^6 cells/well, and then for the stabilization of cells, the cells were cultured in an incubator at 37° C. and 5% CO2 for 16 hours or more. The, the compound 1 was treated at concentrations of 0.5, 1, 1.5, 2 and 2.5 μM, respectively, and cultured for 6 hours, and then the cells were recovered. A protein extraction buffer (RIPA buffer) was added to the cells obtained in the above process, and reacted on ice for 30 minutes to break the cell membrane, which was centrifuged to remove a supernatant, and then the protein was extracted. The extracted protein was developed by electrophoresis using SDS-PAGE, and then transferred to the PVDF membrane. Then, the antibody related to the BCR-ABL fusion gene was reacted, and then the amount of the protein was confirmed using the ECL buffer, and Western blot results for the K562 cell line are shown in FIG. 5.

[9] = system: KG1α cells; assay: Apoptosis or cell necrosis in KG1α cells, FACS (Annexin-V/PI) and western blot; type: cell-based, human; settings: 0-2 μM, 24 hours, FIG. 2
Experimental: as §7, §8, §9

[10] = system: A549, Hela, HepG2, MCF7 and Beas-2B cells; assay: Cell viability WST assay, all solid cancer and normal lung lines taken together; type: cell-based, human; settings: 6 hours
Source text: as §1, §2, §3

[11] = system: acute myelogenous leukemia mouse model in which FLT3-ITD was overexpressed; assay: Changes in monocyte cells in acute leukemia mouse model overexpressing FLT3-ITD; type: in vivo; settings: 120 mg/kg in diet, 8 weeks, FACS, FIG. 4
Experimental: In order to confirm the change in the expression of the FLT3-ITD gene by Compound 1 of the present invention, peripheral blood and spleen were collected after 8 weeks from the animals of an experimental group in which Compound 1 of the present invention was mixed and administered in a diet at a concentration of 120 mg/kg using a mouse (jackson lab) that systemically overexpressed FLT3-ITD, and a control group to which only a solvent was administered (untreated group).
In the case of peripheral blood, cold 1×PBS was added to a small amount of blood, centrifuged, washed, to which RBC lysis buffer was added and reacted for 5 minutes at room temperature to remove red blood cells. […] The antibodies were reacted on ice at a ratio of 1:200 for 20 minutes, washed with 1×PBS, then resuspended with 1×PBS containing 1% FBS, and quantified by FACS, and shown in FIG. 4A.
In the case of the spleen, the cells were crushed on a mesh having a 40 μm hole, separated into single cells, and then washed with cold 1×PBS to which RBC lysis buffer was added and reacted at room temperature for 5 minutes to remove red blood cells. […] The antibodies were reacted on ice at a ratio of 1:200 for 20 minutes, washed with 1×PBS, resuspended in 1×PBS containing 1% FBS, and quantified by FACS, and shown in FIGS. 4B and 4C.

[12] = system: K562 cells; assay: Cell viability in chronic leukemia K562 cells, WST assay; type: cell-based, human; settings: 0.1 to 5 μM
Experimental: K562 cells obtained from a person with chronic myeloid leukemia were cultured in an incubator under conditions of 37° C. and 5% CO2 using RPMI medium containing 10% FBS (fetal bovine serum), and subcultured once every two days and used in the experiment.
The K562 cells cultured in Example 4-1 were inoculated into a 96-well plate at 1×10^5 cells/well, and then, for the stabilization of cells, the cells were cultured in an incubator at 37° C. and 5% CO2 for 16 hours or more. Subsequently, among the compounds synthesized in Example 1, the compounds 1, 10, and 72 and 192 were treated at a concentration of 0.1 to 5 μM and then cultured for 4 hours. At this time, DMSO was used as a control group. After 4 hours of incubation, 10 μl of WST solution was added to each cell and then reacted for 2 hours.

[13] = system: C57BL/6 mice; assay: Acute toxicity experiment, mortality in mice; type: in vivo; settings: 120 mg/kg orally, 24 hours after administration
Experimental: This experiment was conducted to examine the acute toxicity to the animal body acutely (within 24 hours) when the compound 1 of the present invention was ingested in excess in a short period of time, and to determine the mortality rate. 20 C57BL/6 mice, which are common mice, were prepared, and ten mice were assigned to each group. Only 0.1% SLS (sodium lauryl sulfate) was administered to the control group, and the compound 1 was orally administered to the experimental group at a concentration of 120 mg/kg, respectively. As a result of examining each mortality rate 24 hours after administration, both the control group and the experimental group to which the compound 1 was administered survived.

[14] = system: U937 cells; assay: Cell viability of U937 cells, WST-1; type: cell-based, human; settings: 24 hours, WST-1, FIG. 1B
Source text: as §4, §5, §6

Compound	IC50 ([1]; Homo sapiens) [µM]	IC50 ([2]; Homo sapiens) [µM]	IC50 ([3]; Homo sapiens) [µM]	IC50 ([7]; 24 hours) [µM]	IC50 ([7]; Homo sapiens, KG-1, 24 h) [µM]	killing effect compared with β-lapachone [10]	IC50 ([4]; Homo sapiens) [µM]	IC50 ([12]; 4 hours) [µM]	IC50 ([12]; Homo sapiens, K562, 4 h) [µM]	also measured
CC1(C)CCC2=C(O1)c1ccccc1C(=O)C2=O [beta-rapacon, β-lapachone, reference compound]										IC50 [1]: 4.8 µM; IC50 [2]: 5 µM; IC50 [3]: 13.2 µM; IC50 [4]: 12.3 µM
CC(C)c1nc2c([nH]1)C(=O)C(=O)c1ccccc1-2 [compound 1]	4.6	5.1	14.4	0.5	0.5 to 1	killing effect similar to β-lapachone	10.1	1.6	1 to 2	cell killing effect (cell viability), HL60 cells [5]: concentration-dependent cell killing effects; apoptosis or cell necrosis, HL60 cells [6]: both apoptosis and cell necrosis occurred; expression level of the BCR-ABL fusion gene [8]: decreased in a concentration-dependent manner; expression of phospho-bcr-abl [8]: also decreased; expression of phospho-stat5 [8]: also decreased; apoptosis or cell necrosis, KG1α cells [9]: died due to apoptosis; suppression of proliferation of monocyte cells in peripheral blood and spleen [11]: excellent effect of suppressing the proliferation of monocyte cells; mortality, acute toxicity [13]: survived; cell killing effect (cell viability), U937 cells [14]: concentration-dependent cell killing effects
CCc1nc2c([nH]1)C(=O)C(=O)c1ccccc1-2 [compound 10]	7.7	5.5	14.1	0.5	0.5 to 1	killing effect similar to β-lapachone	12.1		0.9	
O=C1C(=O)c2[nH]c(C3CCCO3)nc2-c2ccccc21 (stereo not drawn) [compound 72]	9.1	6.5	12.5	0.7	0.5 to 1	killing effect similar to β-lapachone	12.6	1.4	1 to 2	
